Results on nine molecules are retold here after paper PMC11813896, “Bis(7)-harmine derivatives as potential multi-target anti-Alzheimer agents” (Frontiers in Chemistry, 2025).

Series [1] relates to SHSY5Y cells. Put plainly: Protection of SHSY5Y cells against damage induced by Aβ 1−42, MTT. It counts as cell-based, human. The protocol: The protective effect of the test compounds against Aβ 1-42-induced damage was assessed by monitoring MTT reduction in cells co-exposed to the compound and Aβ 1-42 for 48 h (Figure 3) ([…]). The 6d, 8c, and 8d were tested at concentrations of 1, 5, and 10 μM. […] Therefore, it is imperative to elucidate the underlying mechanisms responsible for these protective effects.
The SHSY5Y cells were seeded in 96-well plates at a density of 1 × 10^4 cells per well and incubated at 37°C for 24 h. Each compound was dissolved in DMSO, followed by direct dilution in the cell culture medium to achieve final concentrations of 1 μM, 5 μM, and 10 μM. Aβ 1−42 was added to each well at a concentration of 5 μM. The cells were then further incubated at 37°C for an additional period of 48 h. Cell viability was subsequently assessed using the MTT assay protocol ([…]).

A further series addresses hAChE (Homo sapiens, UniProt P22303). Put plainly: biochemical. The following applies: for IC50: Mean ± SD from 3-5 assays, read-out: IC50 (nM) for cholinesterase hAChE. The method, then:
50 μL of hAChE (0.02 unit/mL) or hBChE (0.02 unit/mL) were incubated with 10 μL of the compound in 96-well plates at 37°C for 6 min. Subsequently, 30 μL of a substrate solution containing acetylthiocholine iodide (ATCI) or butyrylthiocholine iodide (BTCI) at a concentration of 0.01 M was added, and the mixture was further incubated at 37°C for an additional duration of 12 min.

A further series has as its target hBuChE (Homo sapiens, UniProt P06276). Put plainly: Ellman's assay, hBuChE inhibition. It counts as biochemical. The following applies: for IC50: Mean ± SD from 3-5 assays, read-out: IC50 (nM) for cholinesterase hBuChE; for inhibition at 1 µM: compound at 1 μM, read-out: inhibition of hBuChE in primary screening. The protocol: The Ellman’s assay was utilized to assess the inhibitory potential of novel bis(7)-harmine derivatives against hAChE and hBuChE. 50 μL of hAChE (0.02 unit/mL) or hBChE (0.02 unit/mL) were incubated with 10 μL of the compound in 96-well plates at 37°C for 6 min. Subsequently, 30 μL of a substrate solution containing acetylthiocholine iodide (ATCI) or butyrylthiocholine iodide (BTCI) at a concentration of 0.01 M was added, and the mixture was further incubated at 37°C for an additional duration of 12 min. Finally, the activity was measured by adding 150 μL of a solution containing 5,5′−dithiobis (2-nitrobenzoic acid) (DTNB) at a concentration of 0.01 M, followed by measuring absorbance at a wavelength of 415 nm using an Evolution 300 PC UV-Vis Spectrophotometer.

For a further series, the target named is T1, recombinant hMAO-A (Homo sapiens, UniProt P21397).
T1 construct: purchased Sigma-Aldrich
T1 sequence (P21397 1-527): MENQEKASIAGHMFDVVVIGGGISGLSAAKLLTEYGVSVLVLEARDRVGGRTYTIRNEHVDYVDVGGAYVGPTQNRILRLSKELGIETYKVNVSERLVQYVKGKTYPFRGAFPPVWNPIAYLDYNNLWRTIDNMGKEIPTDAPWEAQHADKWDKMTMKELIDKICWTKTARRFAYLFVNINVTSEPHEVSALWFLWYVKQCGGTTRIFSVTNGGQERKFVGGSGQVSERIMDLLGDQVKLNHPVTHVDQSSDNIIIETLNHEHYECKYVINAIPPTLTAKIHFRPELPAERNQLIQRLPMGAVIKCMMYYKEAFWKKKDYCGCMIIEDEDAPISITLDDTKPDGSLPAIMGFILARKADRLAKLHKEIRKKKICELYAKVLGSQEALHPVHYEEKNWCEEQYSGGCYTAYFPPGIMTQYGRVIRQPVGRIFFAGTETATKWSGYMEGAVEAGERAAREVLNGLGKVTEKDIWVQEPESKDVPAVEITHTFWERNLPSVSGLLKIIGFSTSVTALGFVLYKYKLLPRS
Put plainly: biochemical. Particulars: for IC50: mean ± SD, read-out: IC50 (nM) for monoamine oxidases hMAO-A; for inhibition at 1 µM: compound at 1 μM, read-out: inhibition of hMAO-A in primary screening. The protocol: (§1) Briefly, the compounds under investigation and the reference inhibitor were preincubated with kynuramine at 37°C for 10 min in 96-well microplates. […] The enzymatic reactions were terminated by adding 400 μL of 2 N NaOH and 1,000 μL of water, followed by centrifugation at 16,000 g for 10 min. Subsequently, the concentrations of MAOs that produced 4-hydroxyquinoline were determined by measuring the fluorescence of the supernatant using a Varioskan Flash Multimode Reader ([…]) with excitation and emission wavelengths set at 310 nm and 400 nm, respectively. The IC50 values were calculated from dose-response curves and expressed as the mean ± standard deviation. These values were determined based on at least three independent experiments, each performed in triplicate.

The target of a further series is T2, recombinant hMAO-B (Homo sapiens, UniProt P27338).
T2 construct: purchased Sigma-Aldrich
T2 sequence (P27338 1-520): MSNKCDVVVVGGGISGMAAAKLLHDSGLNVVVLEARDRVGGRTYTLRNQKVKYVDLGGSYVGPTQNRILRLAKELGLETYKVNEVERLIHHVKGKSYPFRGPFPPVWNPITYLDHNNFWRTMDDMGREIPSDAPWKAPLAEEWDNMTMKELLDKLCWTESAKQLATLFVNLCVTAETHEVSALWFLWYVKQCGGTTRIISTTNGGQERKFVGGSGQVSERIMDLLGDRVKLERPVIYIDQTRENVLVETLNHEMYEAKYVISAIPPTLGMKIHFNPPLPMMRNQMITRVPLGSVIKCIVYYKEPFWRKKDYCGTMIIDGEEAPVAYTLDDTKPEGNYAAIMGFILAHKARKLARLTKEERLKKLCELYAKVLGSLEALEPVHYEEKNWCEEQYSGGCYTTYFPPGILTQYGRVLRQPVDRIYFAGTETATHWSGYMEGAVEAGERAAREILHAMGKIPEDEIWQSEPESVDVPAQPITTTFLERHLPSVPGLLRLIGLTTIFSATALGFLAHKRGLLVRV
Put plainly: biochemical. Particulars: for IC50: mean ± SD, read-out: IC50 (nM) for monoamine oxidases hMAO-B; for inhibition at 1 µM: compound at 1 μM, read-out: inhibition of hMAO-B in primary screening. The method, then: as §1

Another series addresses Aβ 1−42 (Homo sapiens, UniProt P05067). Put plainly: Thioflavin T fluorescence assay, Aβ 1−42 self-aggregation. It counts as biochemical. Particulars: for IC50: Aβ 1-42 20 μM, 37°C, 24 h; for inhibition percent ratio of self-induced Aβ 1-42 aggregation: compound at 20 μM. The protocol:
The thioflavin T (Th-T) fluorescence assay was used to assess the inhibition of Aβ 1−42 self-aggregation. […] Subsequently, the reaction was terminated to a final volume of 200 μL using Th-T (10 μM) solution.

Series [2] has as its system SHSY5Y cells. The series is described as follows: In vitro cytotoxicity, MTT assay. It counts as cell-based. The protocol: Following this incubation period, the MTT solution was substituted with […] of DMSO and further incubated at room temperature for 10 minutes to dissolve formazan crystals formed by viable cells. Sorensen Buffer ([…]) was added subsequently followed by measuring absorbance at a wavelength of 570 nm to determine cell viability based on calculated values obtained from control samples without compound treatment. This experimental procedure was repeated independently three times.

Another series deals with AChE. The following applies: ref Rook et al., 2010; Zhao et al., 2018; read-out: AChE (bis-(2)-β-carboline 4, Figure 1); cited from earlier work.
For a further series, the system named is BuChE. The following applies: ref Rook et al., 2010; Zhao et al., 2018; read-out: BuChE (bis-(2)-β-carboline 4, Figure 1); cited from earlier work.

Chain of Aβ 1−42 (P05067 672-713 limits assumed): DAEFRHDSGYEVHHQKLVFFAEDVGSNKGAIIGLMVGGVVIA
Chain of hAChE (P22303 32-614): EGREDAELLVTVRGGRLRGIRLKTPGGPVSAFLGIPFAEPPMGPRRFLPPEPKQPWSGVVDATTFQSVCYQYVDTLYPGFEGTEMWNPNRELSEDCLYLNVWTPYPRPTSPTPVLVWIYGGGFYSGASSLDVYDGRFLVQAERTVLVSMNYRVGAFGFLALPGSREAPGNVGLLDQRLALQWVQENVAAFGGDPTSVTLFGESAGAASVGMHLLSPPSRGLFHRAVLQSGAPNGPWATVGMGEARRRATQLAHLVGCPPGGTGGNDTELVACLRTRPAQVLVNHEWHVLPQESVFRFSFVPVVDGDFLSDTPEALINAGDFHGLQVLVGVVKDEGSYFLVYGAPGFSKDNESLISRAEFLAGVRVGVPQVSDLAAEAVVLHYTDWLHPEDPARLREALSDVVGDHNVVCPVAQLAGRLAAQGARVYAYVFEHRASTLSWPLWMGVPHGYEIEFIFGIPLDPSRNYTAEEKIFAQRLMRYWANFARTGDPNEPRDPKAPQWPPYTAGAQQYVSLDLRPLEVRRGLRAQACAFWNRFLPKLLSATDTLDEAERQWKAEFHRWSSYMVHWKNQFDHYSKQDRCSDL
Chain of hBuChE (P06276 29-602): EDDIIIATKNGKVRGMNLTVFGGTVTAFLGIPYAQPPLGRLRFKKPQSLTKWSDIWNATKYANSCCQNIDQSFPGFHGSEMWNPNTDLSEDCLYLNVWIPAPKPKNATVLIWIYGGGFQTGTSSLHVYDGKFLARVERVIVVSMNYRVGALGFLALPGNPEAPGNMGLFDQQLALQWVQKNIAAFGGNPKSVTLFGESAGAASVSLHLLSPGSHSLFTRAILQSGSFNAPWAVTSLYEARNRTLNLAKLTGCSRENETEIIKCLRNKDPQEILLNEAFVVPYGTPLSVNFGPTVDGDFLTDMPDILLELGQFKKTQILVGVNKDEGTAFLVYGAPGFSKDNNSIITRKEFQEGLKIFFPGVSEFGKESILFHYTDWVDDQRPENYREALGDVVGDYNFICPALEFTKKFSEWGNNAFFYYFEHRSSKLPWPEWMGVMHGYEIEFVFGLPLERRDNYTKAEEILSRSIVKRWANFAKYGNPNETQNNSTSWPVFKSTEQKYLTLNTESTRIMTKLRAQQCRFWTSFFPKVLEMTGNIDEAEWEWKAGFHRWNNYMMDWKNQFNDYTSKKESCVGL

“Aβ 1−42: amyloid-β peptide 1−42 used to induce damage in SHSY5Y cells [reference compound]”: the “reduction of viability of SHSY5Y neuroblastoma cells” value in the series on SHSY5Y cells [1] (treatment with Aβ 1−42 5 μM, 48 h, MTT) was found to be 48.7%.
Regarding `C=CCn1c2cc(OCCCCCCOc3ccc4c5ccnc(C)c5n(CC=C)c4c3)ccc2c2ccnc(C)c21` [Compound 6d, 1,6-bis ((9-allyl-1-methyl-9H-pyrido [3,4-b]indol-7-yl)oxy)hexane], the “S.I. Selectivity index IC50(hBuChE)/IC50(hAChE)” value on hAChE was determined as 1.9. In addition, the IC50 at hAChE was 54.3 ± 3.6 nM; at hBuChE, 102 ± 4.6 nM; on recombinant hMAO-A, 402 ± 23.7 nM; on recombinant hMAO-B, 189 ± 13.6 nM; against Aβ 1−42, 14.1 ± 0.5 µM. Further, the “S.I. Selectivity index IC50(hMAO-B)/IC50(hMAO-A)” value on recombinant hMAO-A came to 0.5. Further, the “effect on SHSY5Y cell viability” value in the series on SHSY5Y cells [2] (0.1–100 μM, 48 h incubation) was “no significant impact on cell viability”. For the same molecule, the “cellular recovery from Aβ 1-42-induced damage” value in the series on SHSY5Y cells [1] (1 μM, co-exposed with Aβ 1-42 for 48 h) is “significant cellular recovery”.
Regarding `CCCn1c2cc(OCCCCCCCCOc3ccc4c5ccnc(C)c5n(CCC)c4c3)ccc2c2ccnc(C)c21` [Compound 8c, 1,8-bis ((1-methyl-9-propyl-9H-pyrido [3,4-b]indol-7-yl)oxy)octane], the “S.I. Selectivity index IC50(hBuChE)/IC50(hAChE)” value at hAChE is over 6.3. The IC50 is 158 ± 11.6 nM on hAChE, 16.4 ± 1.1 nM at recombinant hMAO-A, 153 ± 8.3 nM at recombinant hMAO-B and 19.3 ± 1 µM against Aβ 1−42. Further, on hBuChE, the inhibition at 1 µM came out at 43.4%. Further, the “S.I. Selectivity index IC50(hMAO-B)/IC50(hMAO-A)” value at recombinant hMAO-A came out at 9.5. Moreover, the “cytotoxicity in SHSY5Y cells” value with SHSY5Y cells [2] (0.1 to 10 μM, 48 h) is “negligible cytotoxicity”. Besides, in the series on SHSY5Y cells [2] (concentration increased to 10 μM (so in the source), 48 h), the “SHSY5Y cell viability at increased concentration” value was “evident decrease in SHSY5Y cell viability”.
In the case of `CCCn1c2cc(OCCCCCOc3ccc4c5ccnc(C)c5n(CCC)c4c3)ccc2c2ccnc(C)c21` [Compound 5c, 1,5-bis ((1-methyl-9-propyl-9H-pyrido [3,4-b]indol-7-yl)oxy)pentane], at hAChE, the “S.I. Selectivity index IC50(hBuChE)/IC50(hAChE)” value was over 13.7. Besides, the IC50 at hAChE was 73.8 ± 4.28 nM. The inhibition at 1 µM at hBuChE amounted to 45.6%; on recombinant hMAO-A, 39.5%; at recombinant hMAO-B, 27.5%. Besides, the “inhibition percent ratio of self-induced Aβ 1-42 aggregation” value (“inhibition percent ratio” for short) on Aβ 1−42 amounted to 29.4%.
`Cc1nccc2c3ccc(OCCCCCCCOc4ccc5c6ccnc(C)c6n(C)c5c4)cc3n(C)c12` [Compound 7a, 1,7-bis ((1,9-dimethyl-9H-pyrido [3,4-b]indol-7-yl)oxy)heptane]: the “S.I. Selectivity index IC50(hBuChE)/IC50(hAChE)” value at hAChE is reported as over 4.4. Moreover, the IC50 worked out at 226 ± 13.4 nM at hAChE, 7.2 ± 0.8 nM on recombinant hMAO-A, 281 ± 24.5 nM at recombinant hMAO-B and 6.3 ± 0.2 µM against Aβ 1−42. Moreover, the inhibition at 1 µM on hBuChE came out at 37.3%. Further, the “S.I. Selectivity index IC50(hMAO-B)/IC50(hMAO-A)” value on recombinant hMAO-A is recorded as 40.1. The “effect on SHSY5Y cell viability” value with SHSY5Y cells [2] (1 μM, 48 h) was “pronounced detrimental effect”.
For `CCCn1c2cc(OCCCCOc3ccc4c5ccnc(C)c5n(CCC)c4c3)ccc2c2ccnc(C)c21` [Compound 4c, 1,4-bis ((1-methyl-9-propyl-9H-pyrido [3,4-b]indol-7-yl)oxy)butane], the “S.I. Selectivity index IC50(hBuChE)/IC50(hAChE)” value on hAChE came out at 10.2. Moreover, the IC50 on hAChE was 68 ± 5.1 nM; on hBuChE it was 694 ± 43.2 nM. In addition, the inhibition at 1 µM on recombinant hMAO-A was 48.6%; on recombinant hMAO-B it was 17.8%. In addition, the “inhibition percent ratio” value on Aβ 1−42 turned out to be 33.2%.
Consider `CCn1c2cc(OCCCCCCCCOc3ccc4c5ccnc(C)c5n(CC)c4c3)ccc2c2ccnc(C)c21` [Compound 8b, 1,8-bis ((9-ethyl-1-methyl-9H-pyrido [3,4-b]indol-7-yl)oxy)octane], for which, on hAChE, the “S.I. Selectivity index IC50(hBuChE)/IC50(hAChE)” value stood at 2.7. For the same molecule, the IC50 at hAChE worked out at 324 ± 20.5 nM; on hBuChE, 855 ± 48.8 nM; on recombinant hMAO-A it was 66.5 ± 4.1 nM; on recombinant hMAO-B it was 758 ± 52.6 nM; against Aβ 1−42, 18.7 ± 0.9 µM. Moreover, the “S.I. Selectivity index IC50(hMAO-B)/IC50(hMAO-A)” value at recombinant hMAO-A is 11.5. Also, in the series on SHSY5Y cells [2] (1 μM, 48 h), the “effect on SHSY5Y cell viability” value is “pronounced detrimental effect”.
On to `Cc1nccc2c3ccc(OCCCCOc4ccc5c6ccnc(C)c6n(C)c5c4)cc3n(C)c12` [Compound 4a, 1,4-bis ((1,9-dimethyl-9H-pyrido [3,4-b]indol-7-yl)oxy)butane], for which the inhibition at 1 µM worked out at 36.3% at hAChE (compound at 1 μM, read-out: inhibition of hAChE in primary screening); 30.5% at hBuChE; 41.5% at recombinant hMAO-A; 13.8% on recombinant hMAO-B. For the same molecule, at Aβ 1−42, the “inhibition percent ratio” value came to 39.3%.
For the molecule `c1ccc2c(c1)[nH]c1c[n+](CCCCCCCCCCCC[n+]3ccc4c(c3)[nH]c3ccccc34)ccc12` [Compound 4], the IC50 is 86 nM with AChE and 22 nM in the series on BuChE.
